The values that follow come from patent publication US10472677B2, “Translational dysfunction based therapeutics” (Translational Therapeutics, Inc., priority 2005, dated 2019).

Experiment [1] has as its target T1, eIF4E:m7G binding (G4E) (UniProt P06654+P63073).
T1 construct: made in house; host or cells: E. coli BL21 (DE-3); construct a gift of Gerhard Wagner
Briefly: m7G-Sepharose affinity chromatography competition. Further details: species or system mouse. How it is done:
FIG. 9. […] Washed beads (three times with 75 bed volumes) were incubated with 50 uM of compounds as indicated for 30 min at room temperature. Beads were washed (three times with 75 bed volumes) to remove dissociated eIF4E, and eIF4E remaining bound to beads was resolved using SDS-PAGE, and visualized using Western blotting and chemiluminescence. […] Washed beads (five times with 50 bed volumes of LCB buffer) were incubated with 5 bed volumes of 50 uM of compounds as indicated for 20 min at 4° C. Then 20 uL of the supernatant containing dissociated eIF4E was transferred to a new tube, cleared of trace beads containing bound eIF4E, and resolved using SDS-PAGE, and visualized using Western blotting and chemiluminescence.
m^7G-Sepharose beads (Amersham Pharmacia, 20-μl slurry) were bound with 1.5 ml of 2 μM G4E, purified as described above, in 0.3 M NaCl/0.1 M sodium phosphate (pH 7.5)/10 μM protease-free BSA (USB)/0.1% Nonidet P-40 (Buffer B) for 30 min at room temperature. […] Upon washing released G4E three times with Buffer B, G4E remaining bound to m^7G-Sepharose was boiled in Laemmli buffer (10% glycerol/2% SDS/100 mM DTT/80 mM Tris.HCl/0.06% bromophenol blue, pH 6.8), subjected to SDS/PAGE, and visualized by using Western blotting, as described below.

In experiment [2] the target is T2, eIF4E wild-type (Mus musculus, UniProt P63073).
T2 construct: made in house
The experiment in a line: tryptophan fluorescence quenching titration of nucleoside/nucleotide binding. As for the experimental part: For fluorescence titrations, mouse eIF4E, which differs from human eIF4E by four nonconserved amino acids, was produced as described. For NMR spectroscopy, mouse eIF4E was expressed as a fusion with the B1 domain of protein G (G4E, kind gift of Gerhard Wagner, Harvard University, Cambridge, Mass.), in BL21 (DE-3) cells by induction with 0.8 mM isopropyl-β-D-thiogalactopyranoside at 18° C. for 20 h in M9 minimal media containing 1 g/l ^15NH4Cl as the sole nitrogen source (Cambridge Isotopes). Cells were lysed at 4° C. by sonication in 0.1 M NaCl/50 mM Tris.HCl (pH 7.5/0.5 mM EDTA/0.5% (vol/vol) Nonidet P-40/10 mM 2-mercaptoethanol/1 mM PMSF. Lysates were cleared by centrifugation at 30,000×g, adsorbed onto m^7G diphosphate-conjugated agarose (Amersham Pharmacia), and extensively washed with 0.1 M NaCl/20 mM Tris.HCl (pH 7.5)/0.5 mM EDTA (Buffer A) at 4° C. Subsequently, beads were washed with 0.1 mM GTP in Buffer A, and G4E was eluted with 5 mM m^7G in Buffer A. Eluate was diluted with 20 mM Na2PO4 (pH 7.5) to reduce NaCl concentration to 50 mM, applied to Sepharose Q anion exchange column (Amersham Pharmacia), and eluted with a linear gradient of NaCl in 20 mM Na2PO4 (pH 7.5) at 4° C. Eluate was dialyzed extensively against 0.1 M NaCl/50 mM Na2PO4 (pH 6.5)/5 mM DTT at 4° C. to produce apo-G4E, as verified by using NMR spectroscopy and fluorescence titrations. Purity and identity of G4E were verified by using SDS/PAGE and electrospray ionization MS. Proteins were concentrated by using Amicon concentrators (Millipore).
Fluorescence measurements were performed by using a home-built fluorimeter, as described. All titrations were performed in 0.3 M NaCl/10 mM Na2PO4 (pH 7.5)/1 μM zinc in 0.3×0.3 cm^2 fluorescence cuvette (Hellma), by using eIF4E concentration of 2 μM. […] Corrected relative fluorescence intensities were normalized, and fluorescence quenching curves were fit to a heuristic single-site-binding expression: I/I0=Kd^n/(x^n+Kd^n) where x is ligand concentration, Kd is the apparent dissociation constant, and n is the Hill coefficient.

The target in experiment [3] is HCV polymerase (Hepatitis C virus genotype 1a, UniProt P27958). Particulars: read-out: dissociation constant for HCV polymerase; cited from earlier work.
The target in experiment [4] is eIF4E (Homo sapiens, UniProt P06730). The following applies: cited from earlier work.
Experiment [5] concerns 4E-SE mRNA export. The experiment in a line: export of LacZ-4E-SE mRNA (c/n ratio, real time PCR) in eIF4E overexpressing U2OS cells. Particulars: for export of 4E-SE containing / cyclin D1 mRNA under inhibition of RNA or protein synthesis: actinomycin D 10 μg/ml, cycloheximide 100 μg/ml, 1 hour. Format: cell-based, human. How it is done: eIF4E and PML stably transfected NIH3T3 and U937 cells were as described (Topisirovic et al., 2002; Topisirovic et al., 2003a). U937 cells were used to analyze endogenous Pim1, which is not expressed in NIH3T3 cells. LacZ/LacZ-4E-SE with or without 2Flag-eIF4E as well as TetON LacZ system were stably transfected in U2OS cells. For NXF1 depletion, U2OS cells were transfected with Lipofectamine 2000 and 10 nM siRNA duplex HSC.RNAI.N006362.1.3 (IDT) according to the manufacturer's instruction. Cells were analyzed 72 h after transfection. Actinomycin D, cycloheximide and leptomycin B were all cell culture grade (Sigma).
Immunopurification was as previously published (Culjkovic et al., 2005). Real Time PCR analyses were performed using Sybr Green PCR Master mix (ABI) in Mx3000P™ thermal cycler (Stratagene), and data analyzed with MxPro software (Stratagene). All conditions were described previously (Culjkovic et al., 2005). All calculations were done using the relative standard curve method described in Applied Biosystems User Bulletin #2.
Fractionation and RNA isolation were as described (Lai and Borden, 2000; Topisirovic et al., 2002). Probes for U6 and tRNAlys for Northern blot analysis were previously described (Topisirovic et al., 2002).
A general note: Real-time PCR tracks product formation cycle by cycle.

The subject of experiment [6] is cap-driven translation. The following applies: cited from earlier work.
Experiment [7] addresses cap-binding complex (CBC) (Homo sapiens, UniProt P52298). Particulars: cited from earlier work.
For experiment [8], the target named is T3, nuclear eIF4E-cyclin D1 mRNA association (Homo sapiens, UniProt P06730).
T3 construct: endogenous in cells; host or cells: HEK293T cells, nuclear lysate
Briefly: eIF4E immunoprecipitation from nuclear lysates with cap analogue competition, RT-PCR. The class given is biochemical. The following applies: 50 uM analogue.

“And” between values parts separate entries of the source, which are not always exact repeats. Identical values can stand only once. “Also recorded” adds a separate entry of the source. Starred links: 1 amine or outer side, 2 acyl side, 3 side chain; linkers in the order of their positions; H or OH if unused. Positions of bridges follow the written chain, without caps; N, C: chain ends. Non-standard residues stand in square brackets, D forms with d. Residues, ends and D or L forms follow the SMILES beside them. Chains are numbered I, II in the order given. Actinocin(9to1) = Cc1c2oc3c(C)ccc(C(=O)[*:1])c3nc-2c(C(=O)[*:2])c(N)c1=O; NMeV = CN[C@H](C(=O)O)C(C)C; Sar = CNCC(=O)O A value given as a limit tells only on which side of the number the result lay.

T1 sequence (P06654+P63073 fused): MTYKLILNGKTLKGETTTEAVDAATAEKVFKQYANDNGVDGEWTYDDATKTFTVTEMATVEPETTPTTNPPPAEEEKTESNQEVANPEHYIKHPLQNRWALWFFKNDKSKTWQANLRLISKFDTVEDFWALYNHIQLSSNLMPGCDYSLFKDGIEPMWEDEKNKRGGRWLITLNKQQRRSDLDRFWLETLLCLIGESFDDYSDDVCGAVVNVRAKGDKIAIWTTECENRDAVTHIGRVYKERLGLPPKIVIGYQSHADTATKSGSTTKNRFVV
T2 sequence (P63073 whole entry): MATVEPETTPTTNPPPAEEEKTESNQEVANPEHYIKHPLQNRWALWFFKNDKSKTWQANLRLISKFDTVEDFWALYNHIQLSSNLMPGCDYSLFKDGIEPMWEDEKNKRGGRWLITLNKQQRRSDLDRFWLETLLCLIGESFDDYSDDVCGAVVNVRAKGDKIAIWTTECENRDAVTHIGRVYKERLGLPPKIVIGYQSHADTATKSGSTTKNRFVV
T3 sequence (P06730 2-217 limits assumed): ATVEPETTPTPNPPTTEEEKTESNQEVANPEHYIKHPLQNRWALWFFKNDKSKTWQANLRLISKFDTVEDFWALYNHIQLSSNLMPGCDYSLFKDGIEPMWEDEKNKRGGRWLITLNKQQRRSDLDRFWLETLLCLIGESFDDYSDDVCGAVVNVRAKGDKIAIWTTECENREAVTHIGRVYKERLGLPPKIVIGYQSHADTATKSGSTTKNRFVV
eIF4E, sequence (P06730 whole entry, species assumed): as the sequence (P63073 whole entry) above, with T12P, P16T, A17T, D174E counted along it
cap-binding complex (CBC), sequence (P52298 whole entry): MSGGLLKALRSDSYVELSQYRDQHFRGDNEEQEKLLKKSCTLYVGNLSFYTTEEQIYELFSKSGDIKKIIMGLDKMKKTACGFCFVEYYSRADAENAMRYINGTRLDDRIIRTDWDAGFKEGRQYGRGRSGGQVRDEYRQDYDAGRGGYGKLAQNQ
cap-binding complex (CBC), sequence (Q09161 whole entry partner): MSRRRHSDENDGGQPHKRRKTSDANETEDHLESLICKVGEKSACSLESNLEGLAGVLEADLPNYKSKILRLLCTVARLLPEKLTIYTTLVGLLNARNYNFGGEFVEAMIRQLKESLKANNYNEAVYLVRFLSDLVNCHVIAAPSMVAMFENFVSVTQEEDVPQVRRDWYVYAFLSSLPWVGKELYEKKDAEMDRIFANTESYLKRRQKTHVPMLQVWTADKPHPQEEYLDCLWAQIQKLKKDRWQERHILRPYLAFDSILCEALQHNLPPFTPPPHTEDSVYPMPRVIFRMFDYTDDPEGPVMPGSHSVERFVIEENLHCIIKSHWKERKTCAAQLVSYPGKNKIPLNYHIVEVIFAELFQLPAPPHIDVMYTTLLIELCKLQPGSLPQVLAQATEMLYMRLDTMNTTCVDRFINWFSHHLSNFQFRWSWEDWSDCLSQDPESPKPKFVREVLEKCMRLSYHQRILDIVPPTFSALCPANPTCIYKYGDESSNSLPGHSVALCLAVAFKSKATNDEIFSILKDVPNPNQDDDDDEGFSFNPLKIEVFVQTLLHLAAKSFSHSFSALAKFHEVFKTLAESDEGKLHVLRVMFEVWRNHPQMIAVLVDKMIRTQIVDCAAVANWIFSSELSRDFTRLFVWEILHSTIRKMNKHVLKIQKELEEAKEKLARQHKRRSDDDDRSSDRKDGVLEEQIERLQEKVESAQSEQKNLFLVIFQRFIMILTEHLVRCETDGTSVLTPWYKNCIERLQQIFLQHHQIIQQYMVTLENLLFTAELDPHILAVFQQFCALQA
HCV polymerase, sequence (P27958 2421-3011): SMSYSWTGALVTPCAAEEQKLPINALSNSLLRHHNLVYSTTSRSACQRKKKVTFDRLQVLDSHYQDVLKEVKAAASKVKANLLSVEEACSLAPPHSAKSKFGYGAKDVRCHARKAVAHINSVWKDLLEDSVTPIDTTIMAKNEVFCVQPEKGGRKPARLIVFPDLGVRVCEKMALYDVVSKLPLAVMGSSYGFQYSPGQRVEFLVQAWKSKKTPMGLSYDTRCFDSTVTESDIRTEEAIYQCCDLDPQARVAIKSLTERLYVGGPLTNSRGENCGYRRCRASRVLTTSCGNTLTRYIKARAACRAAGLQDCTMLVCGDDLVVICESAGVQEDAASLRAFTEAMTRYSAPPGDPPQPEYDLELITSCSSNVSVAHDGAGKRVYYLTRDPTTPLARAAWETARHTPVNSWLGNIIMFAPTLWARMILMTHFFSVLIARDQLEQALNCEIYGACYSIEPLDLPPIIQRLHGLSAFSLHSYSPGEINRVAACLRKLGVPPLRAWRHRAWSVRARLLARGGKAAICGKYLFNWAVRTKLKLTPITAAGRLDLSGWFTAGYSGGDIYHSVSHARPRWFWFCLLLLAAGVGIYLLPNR

With `NC(=O)c1ncn([C@@H]2O[C@H](CO[P@@](=O)(O)O[P@](=O)(O)OP(=O)(O)O)[C@@H](O)[C@H]2O)n1` [RTP, Ribavirin-5′ triphosphate], the “competition with m7G binding, protocol of Yan et al.” value in experiment [1] (0.1 M KCl, 10 mM HEPES-KOH pH 8.0, presumed 4 C) was “apparent failure of RTP to compete”. Besides, the “competition with eIF4E:m7G binding” value in experiment [1] (0.3 M NaCl, 0.1 M sodium phosphate pH 7.5, room temperature, micromolar concentrations) is recorded as “compete with the binding of eIF4E:m7G”. In addition, the IC50 in experiment [1] (Western blot of eIF4E remaining bound, read-out: concentration giving 50% reduction of eIF4E binding to m7G-Sepharose) was about 1 µM. In experiment [1] (read-out: apparent inhibition constant (Ki) of eIF4E:m7G binding), the Ki was about 0.3 µM. Moreover, the Kd in experiment [2] (fluorescence spectroscopy, wild-type eIF4E, read-out: apparent dissociation constant (Kd) for eIF4E) was 0.13 µM and ~0.1 µM; in experiment [3], 580 µM. On to `Nc1nc2c(ncn2[C@@H]2O[C@H](CO)[C@@H](O)[C@H]2O)c(=O)[nH]1` [guanosine], for which the “binding to eIF4E relative to m7G cap, fold weaker” value in experiment [4] is listed as over 5000 fold. `CCC(=C/[C@H](C)C/C=C/C(C)=C/[C@@H](C)C(=O)[C@@H](C)[C@H](O)[C@@H](C)C/C(C)=C/C(=O)O)/C=C/[C@@H]1OC(=O)C=C[C@@H]1C` [LMB]: in experiment [5] (10 ng/ml for 4 h), the “export of LacZ-4E-SE mRNA” value was “sensitive to LMB; also recorded: suppressed export”. Take `Cn1c[n+]([C@@H]2O[C@H](COP(=O)(O)OP(=O)([O-])O)[C@@H](O)[C@H]2O)c2nc(N)[nH]c(=O)c21` [m7GDP]: the “reduction of cap-driven firefly luciferase activity” value in experiment [6] (1 mM, Yan et al. 2005) is reported as “fourfold”. Regarding `C[C@@H]1C[C@@H]([C@H](O)CC2CC(=O)NC(=O)C2)C(=O)[C@@H](C)C1` [cycloheximide], the “export of 4E-SE containing / cyclin D1 mRNA under inhibition of RNA or protein synthesis” value in experiment [5] is “not modulated”. In the case of `Cn1c[n+]([C@@H]2O[C@H](COP(=O)(O)OP(=O)([O-])OP(=O)(O)OC[C@H]3O[C@@H](n4cnc5c(=O)[nH]c(N)nc54)[C@H](O)[C@@H]3O)[C@@H](O)[C@H]2O)c2nc(N)[nH]c(=O)c21` [m7GpppG], the Kd in experiment [7] was about 0.01 µM. Also, the “analog concentration inhibiting cap-driven translation” value in experiment [6] (Westman et al. 2005) is “ca. 0.1 mM”. The “association of cyclin D1 mRNA with nuclear eIF4E” value in experiment [8] is “successfully disrupts”.

Regarding `Nc1nc2c(ncn2[C@@H]2O[C@H](COP(=O)(O)OP(=O)(O)OP(=O)(O)OC[C@H]3O[C@@H](n4cnc5c(=O)[nH]c(N)nc54)[C@H](O)[C@@H]3O)[C@@H](O)[C@H]2O)c(=O)[nH]1` [GpppG], the “association of cyclin D1 mRNA with nuclear eIF4E” value in experiment [8] is “does not disrupt”. Turning to `NC(=O)c1ncn(C2OC(COP(=O)(O)OP(=O)(O)OP(=O)(O)OCC3OC(n4cnc5c(=O)[nH]c(N)nc54)C(O)C3O)C(O)C2O)n1` (centres unmarked) [RpppG], in experiment [6] (Westman et al. 2005), the “inhibition of cap-driven translation” value is “does not”. `NC(=O)c1cn([C@@H]2O[C@H](CO)[C@@H](O)[C@H]2O)nn1` [Rib4C, 1-β-D-ribofuranosyl-1,2,3-triazole-4-carboxamide]: the “binding to eIF4E” value in experiment [2] (in vitro) is “failed to bind eIF4E”. `Cc1c2oc3c(C)ccc(C(=O)N[C@@H]4C(=O)N[C@H](C(C)C)C(=O)N5CCC[C@H]5C(=O)N(C)CC(=O)N(C)[C@@H](C(C)C)C(=O)O[C@@H]4C)c3nc-2c(C(=O)N[C@@H]2C(=O)N[C@H](C(C)C)C(=O)N3CCC[C@H]3C(=O)N(C)CC(=O)N(C)[C@@H](C(C)C)C(=O)O[C@@H]2C)c(N)c1=O` [actinomycin D] (I: T[dV]P[Sar][NMeV] / II: T[dV]P[Sar][NMeV]; ester I:1-I:C, II:1-II:C; linker I:N-II:N via Actinocin(9to1)): in experiment [5], the “export of 4E-SE containing / cyclin D1 mRNA under inhibition of RNA or protein synthesis” value is “did not affect export”.
